# According to patent publication US8993556B2, “Resorcinol derivatives as HSP90 inhibitors” (priority 2009, dated 2015):
# pIC50: −log10 of the molar value. Read-outs that look alike come from different tables or passages of the source.
# Legend:
# in vivo = conditions: Mouse Balb Nu/Nu, single; for clearance / half-life / Vd: 10 mg/kg IV bolus; for clearance: read-out: CL (mL/h/kg) Plasma clearance (converted); for half-life: read-out: T1/2 (h) Terminal half-life (converted); for Vd: read-out: Vdss (mL/kg) Volume of distribution at steady state; for bioavailability: 10 mg/kg oral vs 10 mg/kg IV, read-out: F % Oral bioavailability
# Experimental: Calibration Standards and Quality Controls were prepared spiking blank mouse plasma with appropriate working solutions.
# Sample plasma proteins were precipitated by adding 160 μL of acetonitrile/methanol 90/10 to 20 μL of mouse plasma in a 96 well plate.
# After heat sealing and mixing for 3 minutes, the plate was centrifuged for 15 minutes at 4000 rpm.
# The supernatant was considered as final extract and injected onto the LC-MS-MS system.
# • UPLC system: Waters Acquity BSM • Mobile phase A: 95:5-5 mM Ammonium Formate pH3.5: Acetonitrile • Mobile phase B: 5:95-5 mM Ammonium Formate pH3.5: Acetonitrile • Analytical column: BEH C18 50×2.1 1.7 μm • Elution conditions:
# • Total Run Time: 2.0 min. • Flow rate: 0.500 mL/min • Approximate retention time: NMS-03308086: 0.67 min. • Column oven temp: 40° C. • Autosampler type: Waters Acquity SM • Injection volume: 3 μL • Injection mode: Partial Loop with Needle Overfill • Autosampler temperature: 5° C. • MS instrument: Waters TQD • Ionisation: ES+ • Capillary: 1.5 kV • Cone: 70 V • Source Temperature: 150° C. • Desolvation Flow and Temp.: 900 L/h-400° C. • Collision Gas Flow: 0.2 mL/min • Collision Energy: 40 • MRM transitions: NMS-03308086: m/z 579.1>m/z 97.0 • Dwell Time: 0.1 seconds • LLOQ: 5.0 ng/mL • ULOQ: 5000 ng/mL • Software used: Mass Lynx 4.1 SCN627
# [1] = tested on: Her2 protein levels in BT474 breast cancer cells; assay: Her2 Degradation Assay; format: cell-based; conditions: Homo sapiens; for IC50: BT-474, 8 h, read-out: Her2 Degradation IC50 (μM); for pIC50: BT-474, BT474 breast cancer cells, 8 hours, read-out: Her2 Degradation IC50
# Experimental: The potencies of the compounds of the present invention were evaluated by measuring the Her2 degradation as a marker for HSP90 inhibition.
# HSP90 is a key component of a chaperone machinery that catalyzes the folding and quality control of several proteins. Its inhibition impairs the capacity to fold or stabilize its client proteins, leading to the proteosomal dependent degradation of these unfolded proteins. […] Cellular activity of HSP90 inhibitors was assessed by measuring the induced loss of Her2 protein levels in BT474 breast cancer cells (ATCC #HTB-20). Cellular Her2 levels were measured by immunocytochemistry, and quantified using an ArrayScan vTi instrument (Cellomics Thermo Scientific).
# Cellular activity of HSP90 inhibitors was assessed by measuring the induced loss of Her2 protein levels in BT474 breast cancer cells (ATCC #HTB-20). Cellular Her2 levels were measured by immunocytochemistry, and quantified using an ArrayScan vTi instrument (Cellomics Thermo Scientific).
# Studies were performed as follows: 5000 cells/well are seeded in 96 well plates (Perkin Elmer) in DMEM/5% FCS and incubated for 48 hours at 37° C., 5% CO2.
# Medium is then replaced with fresh medium containing test compounds at the required concentration. Concentration curves are prepared in DMEM/10% FCS from compound stocks in DMSO, and final DMSO concentration is 0.1% (v/v). Duplicate wells for each concentration point are prepared, with a typical highest compound concentration of 30 μM. […] Plates are incubated for 20 minutes at room temperature, then wells are washed in PBS and cells permiabilised by incubating with PBS containing 0.3% Triton X-100 for 15 minutes at room temperature. Non-specific binding sites are blocked by incubating wells for 1 hour in PBS containing 3% (w/v) BSA. Wells are then incubated for 1 hour at room temperature in PBS containing anti Her2 mouse monoclonal (Anti-c-ErbB2/c-Neu, Mouse mAb 3B5, Calbiochem Cat N^o OP15) diluted 1:100 in 1% (w/v) BSA. […] After washing a further 3 times in PBS, cellular Her2 immunoreactivity is assessed using the ArrayScan vTi instrument, with a Zeiss 10× 0.5 N.A. objective, and applying the Cytotoxity.V3 algorithm (Cellomics/Thermo Fisher) with a XF100 filter. At least 10 fields, corresponding to at least 900 cells, are read for each well.
# IC50 is the response; IC50 starts at Bottom and goes to Top with a sigmoid shape. In Vitro Cell Proliferation Assay
# [2] = tested on: A2780 human ovarian cells; assay: In Vitro Cell Proliferation Assay; format: cell-based; conditions: for IC50: Homo sapiens, A2780, 72 h, read-out: A2780 Proliferation IC50 (μM); for pIC50: A2780 human ovarian cells, 72 hours, CellTiter-Glo, read-out: A2780 Proliferation IC50
# Experimental: The cells were incubated at 37° C. and 5% CO2 and after 72 hours the plates were processed using CellTiter-Glo assay (Promega) following the manufacturer's instruction.
# CellTiter-Glo is a homogenous method based on the quantification of the ATP present, an indicator of metabolically active cells. ATP is quantified using a system based on luciferase and D-luciferin resulting into light generation. The luminescent signal is proportional to the number of cells present in culture.
# Briefly 25 μL/well reagent solution are added to each wells and after 5 minutes shacking microplates are red by a luminometer. The luminescent signal is proportional to the number of cells present in culture.
# His-HSP90 N-term domain = assay: Determination of KD Via Biacore; format: binding; conditions: Biacore T100
# Experimental: The evaluation of the binding affinity (KD) of the compounds of formula (I) to the HSP90 protein was done using Biacore T100.
# His-HSP90 N-term domain was immobilized by capture of his tag by the Ab previously covalently bound to the chip (CM5) surface.
# The compounds were analyzed using the following running buffer: 20 mM Tris/HCl pH 7.6, 150 mM KCl, 5 mM MgCl2, 0.05% P20 and 1% DMSO. The flow rate was 50 ul/min with and association time of 60 seconds.
# The cpds were diluted in running buffer from 100× stock solution; the different conc injected were obtained from a sequential dilution in order to have the same DMSO conc. in each sample and avoid any solvent correction.
SMILES,clearance (in vivo) [mL/h/kg],half-life (in vivo) [h],Vd (in vivo) [mL/kg],bioavailability (in vivo) [%],IC50 [1] [µM],IC50 [2] [µM],Kd (His-HSP90 N-term domain) [nM],pIC50 [1],pIC50 [2]
CN(C)c1ccc(Oc2cc(O)cc(O)c2-c2cc(C(=O)NC3CCN(C4CCC5(CC4)OCCO5)CC3)no2)cc1,1760,5.46,4940,36,,,,,
"CN1CCC(NC(=O)c2cc(-c3c(O)cc(O)cc3Oc3ccc([N+](=O)[O-])cc3)no2)CC1 [3-[2,4-Dihydroxy-6-(4-nitrophenoxy)phenyl]-N-(1-methylpiperidin-4-yl)isoxazole-5-carboxamide]",3420,1.52,4470,7,0.022,0.02,0.24,,
"CN(C)c1ccc(Oc2cc(O)cc(O)c2-c2cc(C(=O)NC3CCN(C4CCC5(CC4)OCCO5)CC3)on2)cc1 [3-{2-[4-(Dimethylamino)phenoxy]-4,6-dihydroxyphenyl}-N-[1-(1,4-dioxaspiro[4.5]dec-8-yl)piperidin-4-yl]isoxazole-5-carboxamide]",1910,7.23,9120,23,,,0.043,8.52,7.70
"CC(C)N1CCC(NC(=O)c2cc(-c3c(O)cc(O)cc3Oc3ccc([N+](=O)[O-])cc3)on2)CC1 [5-[2,4-Dihydroxy-6-(4-nitrophenoxy)phenyl]-N-[1-(propan-2-yl)piperidin-4-yl]isoxazole-3-carboxamide]",,,,,0.058,,,,
"CCNC(=O)c1cc(-c2c(O)cc(O)cc2Oc2ccc([N+](=O)[O-])cc2)on1 [5-[2,4-Dihydroxy-6-(4-nitrophenoxy)phenyl]-N-ethyl isoxazole-3-carboxamide]",,,,,0.059,0.07,,,
"CCNC(=O)c1cc(-c2c(O)cc(O)cc2Oc2ccc(C#N)cc2)on1 [5-[2-(4-Cyanophenoxy)-4,6-dihydroxyphenyl]-N-ethylisoxazole-3-carboxamide]",,,,,,,,6.56,
"CCNC(=O)c1cc(-c2c(O)cc(O)cc2Oc2ccc(Cl)cc2)on1 [5-[2-(4-chlorophenoxy)-4,6-dihydroxyphenyl]-N-ethylisoxazole-3-carboxamide]",,,,,0.059,,,,
"CN(C)c1ccc(Oc2cc(O)cc(O)c2-c2cc(C(=O)NC3CCN(C4CCC5(CC4)OCC(C)(C)CO5)CC3)no2)cc1 [5-{2-[4-(Dimethylamino)phenoxy]-4,6-dihydroxyphenyl}-N-[1-(3,3-dimethyl-1,5-dioxaspiro[5.5]undec-9-yl)piperidin-4-yl]isoxazole-3-carboxamide]",1340,6.71,6000,19,,,0.08,7.43,7.46
"CN(C)c1ccc(Oc2cc(O)cc(O)c2-c2cc(C(=O)NC3CCN(C4CCCCC4)CC3)no2)cc1 [N-(1-Cyclohexylpiperidin-4-yl)-5-{2-[4-(dimethylamino)phenoxy]-4,6-dihydroxyphenyl}isoxazole-3-carboxamide]",,,,,0.003,,,,
"O=C(NC1CCN(C2CCC(F)(F)CC2)CC1)c1cc(-c2c(O)cc(O)cc2Oc2ccc([N+](=O)[O-])cc2)on1 [N-[1-(4,4-Difluorocyclohexyl)piperidin-4-yl]-5-[2,4-dihydroxy-6-(4-nitrophenoxy)phenyl]isoxazole-3-carboxamide]",,,,,0.027,0.05,0.8,,
"CN(C)c1ccc(Oc2cc(O)cc(O)c2-c2cc(C(=O)NC3CCN(C4CCC(F)(F)CC4)CC3)no2)cc1 [N-[1-(4,4-Difluorocyclohexyl)piperidin-4-yl]-5-{2-[4-(dimethylamino)phenoxy]-4,6-dihydroxyphenyl}isoxazole-3-carboxamide]",,,,,0.002,0.02,0.057,,
"CN(C)c1ccc(Oc2cc(O)cc(O)c2-c2cc(C(=O)NC3CCN(CC4CCCCC4)CC3)no2)cc1 [N-[1-(Cyclohexylmethyl)piperidin-4-yl]-5-{2-[4-(dimethylamino)phenoxy]-4,6-dihydroxyphenyl}isoxazole-3-carboxamide]",,,,,0.02,0.01,0.188,,
